Data as given in patent US9980943B2, “Methods of treating muscular dystrophy” (BOARD OF REGENTS OF THE NEVADA SYSTEM OF HIGHER EDUCATION, …, priority 2013, dated 2018).

Tests used:
Type in all cases: cell-based, mouse
[1] = system: β-galactosidase in CMV-LacZ C2C12 myotubes; test: CMV-LacZ secondary screen in C2C12 myotubes (β-Gal stabilizing assay); conditions: for CMV-LACZ in Myotubes, signal relative to DMSO: C2C12 CMV-LacZ myotubes, fold relative to DMSO; for CMV-LACZ in Myotubes (β-galactosidase activity relative to DMSO): CMV-LacZ C2C12 myotubes, 96-well format
Procedure, shortened: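 First, C2C12 myoblasts were transfected with a linearized CMV-LACZ vector and clonal lines selected by FDG β-gal assay. Then cells were exposed to compounds at 0.5, 1, 5, 10, 20 and 40 μM in 96-well format, two replicates each, and β-gal measured.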

[2] = system: α7 integrin (LacZ reporter in α7βgal+/− myoblasts); test: Myoblast α7+/LacZ integrin FDG assay (Burkin assay in myoblasts, 96-well); conditions: α7+/LacZ myoblasts, 96-well
[3] = system: α7 integrin (LacZ reporter in α7+/LacZ myotubes); test: Myotube α7 integrin FDG assay (Burkin assay in myotubes, 96-well); conditions: myotubes

CCNC(=O)CSc1nc(-c2ccc(F)cc2)cs1 [MLS000772194-01]
CMV-LACZ in Myotubes, signal relative to DMSO ([1]; 5 uM): 1.068
CMV-LACZ in Myotubes, signal relative to DMSO ([1]; 10 uM): 0.9234
CMV-LACZ in Myotubes, signal relative to DMSO ([1]; 20 uM): 1.056
CMV-LACZ in Myotubes, signal relative to DMSO ([1]; 40 uM): 0.9968
Burkin Assay in Myoblasts, value relative to DMSO ([2]; 0.5 uM): 1.096
Burkin Assay in Myoblasts, value relative to DMSO ([2]; 1 uM): 1.059
Burkin Assay in Myoblasts, value relative to DMSO ([2]; 5 uM): 1.055
Burkin Assay in Myoblasts, value relative to DMSO ([2]; 10 uM): 1.082
Burkin Assay in Myoblasts, value relative to DMSO ([2]; 20 uM): 1.098
Burkin Assay in Myoblasts, value relative to DMSO ([2]; 40 uM): 1.149
Burkin Assay in Myotubes (signal relative to DMSO) ([3]; 0.5 uM): 0.9782
Burkin Assay in Myotubes (signal relative to DMSO) ([3]; 1 uM): 0.9192
Burkin Assay in Myotubes (signal relative to DMSO) ([3]; 5 uM): 0.9654
Burkin Assay in Myotubes (signal relative to DMSO) ([3]; 10 uM): 1.072
Burkin Assay in Myotubes (signal relative to DMSO) ([3]; 20 uM): 0.9904
Burkin Assay in Myotubes (signal relative to DMSO) ([3]; 40 uM): 0.7651

CCOc1ccc(NC(=O)CN2C(=O)NC(CCSC)C2=O)cc1 (centres unmarked) [MLS000772430-01]
CMV-LACZ in Myotubes (β-galactosidase activity relative to DMSO) ([1]; 5 uM): 0.8183
CMV-LACZ in Myotubes (β-galactosidase activity relative to DMSO) ([1]; 10 uM): 0.9094
CMV-LACZ in Myotubes (β-galactosidase activity relative to DMSO) ([1]; 20 uM): 0.8956
CMV-LACZ in Myotubes (β-galactosidase activity relative to DMSO) ([1]; 40 uM): 1.037
fold induction at 0.5 µM ([2]; Mus musculus, Myoblast, 48 h, 0.5 uM, read-out: Burkin Assay in Myoblasts, value relative to DMSO): 0.973
fold induction at 1 µM ([2]; Mus musculus, Myoblast, 48 h, 1 uM, read-out: Burkin Assay in Myoblasts, value relative to DMSO): 0.936
fold induction at 5 µM ([2]; Mus musculus, Myoblast, 48 h, 5 uM, read-out: Burkin Assay in Myoblasts, value relative to DMSO): 1.01
fold induction at 10 µM ([2]; Mus musculus, Myoblast, 48 h, 10 uM, read-out: Burkin Assay in Myoblasts, value relative to DMSO): 1.05
fold induction at 20 µM ([2]; Mus musculus, Myoblast, 48 h, 20 uM, read-out: Burkin Assay in Myoblasts, value relative to DMSO): 0.881
fold induction at 40 µM ([2]; Mus musculus, Myoblast, 48 h, 40 uM, read-out: Burkin Assay in Myoblasts, value relative to DMSO): 0.896
fold induction at 0.5 µM ([3]; Mus musculus, Myotube, 0.5 uM, read-out: Burkin Assay in Myotubes (signal relative to DMSO)): 1.03
fold induction at 1 µM ([3]; Mus musculus, Myotube, 1 uM, read-out: Burkin Assay in Myotubes (signal relative to DMSO)): 1.28
fold induction at 5 µM ([3]; Mus musculus, Myotube, 5 uM, read-out: Burkin Assay in Myotubes (signal relative to DMSO)): 1.04
fold induction at 10 µM ([3]; Mus musculus, Myotube, 10 uM, read-out: Burkin Assay in Myotubes (signal relative to DMSO)): 1.25
fold induction at 20 µM ([3]; Mus musculus, Myotube, 20 uM, read-out: Burkin Assay in Myotubes (signal relative to DMSO)): 1.26
fold induction at 40 µM ([3]; Mus musculus, Myotube, 40 uM, read-out: Burkin Assay in Myotubes (signal relative to DMSO)): 1.05

CCNC(=O)COC(=O)c1cc(-c2ccco2)nc2ccccc12 [MLS000772580-01]
CMV-LACZ in Myotubes, signal relative to DMSO ([1]; 5 uM): 0.8986
CMV-LACZ in Myotubes, signal relative to DMSO ([1]; 10 uM): 1.0933
CMV-LACZ in Myotubes, signal relative to DMSO ([1]; 20 uM): 1.029
CMV-LACZ in Myotubes, signal relative to DMSO ([1]; 40 uM): 1.088
Burkin Assay in Myoblasts, value relative to DMSO ([2]; 0.5 uM): 0.8487
Burkin Assay in Myoblasts, value relative to DMSO ([2]; 1 uM): 0.9736
Burkin Assay in Myoblasts, value relative to DMSO ([2]; 5 uM): 0.8554
Burkin Assay in Myoblasts, value relative to DMSO ([2]; 10 uM): 0.8513
Burkin Assay in Myoblasts, value relative to DMSO ([2]; 20 uM): 0.7938
Burkin Assay in Myoblasts, value relative to DMSO ([2]; 40 uM): 0.7251
Burkin Assay in Myotubes (signal relative to DMSO) ([3]; 0.5 uM): 0.851
Burkin Assay in Myotubes (signal relative to DMSO) ([3]; 1 uM): 0.8999
Burkin Assay in Myotubes (signal relative to DMSO) ([3]; 5 uM): 1.323
Burkin Assay in Myotubes (signal relative to DMSO) ([3]; 10 uM): 0.9474
Burkin Assay in Myotubes (signal relative to DMSO) ([3]; 20 uM): 0.9413
Burkin Assay in Myotubes (signal relative to DMSO) ([3]; 40 uM): 0.8535

O=C(Nc1ccccc1)Nc1ccc(Cl)c(S(=O)(=O)N2CCOCC2)c1 [MLS000773700-01]
CMV-LACZ in Myotubes (β-galactosidase activity relative to DMSO) ([1]; 5 uM): 1.126
CMV-LACZ in Myotubes (β-galactosidase activity relative to DMSO) ([1]; 10 uM): 1.1166
CMV-LACZ in Myotubes (β-galactosidase activity relative to DMSO) ([1]; 20 uM): 0.929
CMV-LACZ in Myotubes (β-galactosidase activity relative to DMSO) ([1]; 40 uM): 0.4092
Burkin Assay in Myoblasts, value relative to DMSO ([2]; 0.5 uM): 0.9335
Burkin Assay in Myoblasts, value relative to DMSO ([2]; 1 uM): 1.0257
Burkin Assay in Myoblasts, value relative to DMSO ([2]; 5 uM): 0.9059
Burkin Assay in Myoblasts, value relative to DMSO ([2]; 10 uM): 0.8657
Burkin Assay in Myoblasts, value relative to DMSO ([2]; 20 uM): 0.9227
Burkin Assay in Myoblasts, value relative to DMSO ([2]; 40 uM): 0.8721
Burkin Assay in Myotubes (signal relative to DMSO) ([3]; 0.5 uM): 1.008
Burkin Assay in Myotubes (signal relative to DMSO) ([3]; 1 uM): 1.019
Burkin Assay in Myotubes (signal relative to DMSO) ([3]; 5 uM): 0.7118
Burkin Assay in Myotubes (signal relative to DMSO) ([3]; 10 uM): 0.9516
Burkin Assay in Myotubes (signal relative to DMSO) ([3]; 20 uM): 0.9895
Burkin Assay in Myotubes (signal relative to DMSO) ([3]; 40 uM): 0.472

CN(C)S(=O)(=O)c1ccc(C(=O)Nc2nc3ccccc3[nH]2)cc1 [MLS000774940-01]
CMV-LACZ in Myotubes (β-galactosidase activity relative to DMSO) ([1]; 5 uM): 0.954
CMV-LACZ in Myotubes (β-galactosidase activity relative to DMSO) ([1]; 10 uM): 0.8604
CMV-LACZ in Myotubes (β-galactosidase activity relative to DMSO) ([1]; 20 uM): 1.171
CMV-LACZ in Myotubes (β-galactosidase activity relative to DMSO) ([1]; 40 uM): 1.005
Burkin Assay in Myoblasts, value relative to DMSO ([2]; 0.5 uM): 0.9309
Burkin Assay in Myoblasts, value relative to DMSO ([2]; 1 uM): 0.8928
Burkin Assay in Myoblasts, value relative to DMSO ([2]; 5 uM): 1.095
Burkin Assay in Myoblasts, value relative to DMSO ([2]; 10 uM): 1.043
Burkin Assay in Myoblasts, value relative to DMSO ([2]; 20 uM): 0.858
Burkin Assay in Myoblasts, value relative to DMSO ([2]; 40 uM): 0.7761
Burkin Assay in Myotubes (signal relative to DMSO) ([3]; 0.5 uM): 0.9469
Burkin Assay in Myotubes (signal relative to DMSO) ([3]; 1 uM): 0.9777
Burkin Assay in Myotubes (signal relative to DMSO) ([3]; 5 uM): 1.01
Burkin Assay in Myotubes (signal relative to DMSO) ([3]; 10 uM): 0.9908
Burkin Assay in Myotubes (signal relative to DMSO) ([3]; 20 uM): 1.084
Burkin Assay in Myotubes (signal relative to DMSO) ([3]; 40 uM): 0.878
